Literature values as cited in patent US20030073580A1, “Composition for treating cells and method for qualitatively and quantitatively customizing the formulation thereof” (priority 2001, published 2003).
Read-outs that look alike come from different tables or passages of the source.

System: plant leaves
[1] = Sulfate 0.1 Mg SO4/L (0.0334 milligrams elemental S)
[2] = Sulfate 1.0 Mg SO4/L (0.3340 milligrams elemental S)
[3] = Sulfate 10.0 Mg SO4/L (3.3400 milligrams elemental S)
[4] = Sulfate 50.0 Mg SO4/L (16.7000 milligrams elemental S)
[5] = Sulfate 200.0 Mg SO4/L (66.8000 milligrams elemental S)

Compound: S1SSSSSSS1 [sulfur]
- free nitrate nitrogen in plant leaves (available sulfur approximately 16.7 mg per liter): zero
- optimal concentration of available sulfur in a fertilizer mixture (concentration at which free nitrate drops to zero and organic sulfur and protein nitrogen reach their maximum): approximately 16.7 mg per liter

Compound: O=S(=O)(O)O [Sulfate]
- Inorganic S [1]: 0.003 Percentage of Dry Weight
- Leaf Dry Wt [1]: 1.1 g/plant
- Nitrate N [1]: 1.39 Percentage of Dry Weight
- Organic N [1]: 2.23 Percentage of Dry Weight
- Organic S [1]: 0.11 Percentage of Dry Weight
- Protein N [1]: 0.96 Percentage of Dry Weight
- Inorganic S [2]: 0.003 Percentage of Dry Weight
- Leaf Dry Wt [2]: 2.4 g/plant
- Nitrate N [2]: 1.37 Percentage of Dry Weight
- Organic N [2]: 2.21 Percentage of Dry Weight
- Organic S [2]: 0.12 Percentage of Dry Weight
- Protein N [2]: 1.28 Percentage of Dry Weight
- Inorganic S [3]: 0.009 Percentage of Dry Weight
- Leaf Dry Wt [3]: 3.4 g/plant
- Nitrate N [3]: 0.06 Percentage of Dry Weight
- Organic N [3]: 1.19 Percentage of Dry Weight
- Organic S [3]: 0.17 Percentage of Dry Weight
- Protein N [3]: 2.56 Percentage of Dry Weight
- Inorganic S [4]: 0.100 Percentage of Dry Weight
- Leaf Dry Wt [4]: 4.7 g/plant
- Nitrate N [4]: 0.00 Percentage of Dry Weight
- Organic N [4]: 0.51 Percentage of Dry Weight
- Organic S [4]: 0.26 Percentage of Dry Weight
- Protein N [4]: 3.25 Percentage of Dry Weight
- Inorganic S [5]: 0.360 Percentage of Dry Weight
- Leaf Dry Wt [5]: 4.7 g/plant
- Nitrate N [5]: 0.10 Percentage of Dry Weight
- Organic N [5]: 0.45 Percentage of Dry Weight
- Organic S [5]: 0.25 Percentage of Dry Weight
- Protein N [5]: 3.20 Percentage of Dry Weight
